This note sets out measurements from US20240101551A1, “CRYSTAL FORM AND SALT FORM OF BROMINE DOMAIN PROTEIN INHIBITOR AND PREPARATION METHOD THEREFOR” (CHIA TAI TIANQING PHARMACEUTICAL GROUP CO., LTD., priority 2020, published 2024).

One data set has as its target BRD4 (BD2) (Homo sapiens (Human), UniProt O60885). Nature of the data set: In vitro enzymatic activity assay on BRD4 (BD2), HTRF. Format: binding. As to conditions: GST-BRD4 (BD2, 349-460 aa). Here is the method: In the present application, the IC50 value of the compound of formula (I) in inhibiting BRD4 (BD2) enzyme binding reaction were determined by homogeneous time resolved fluorescence (HTRF). The compound of formula (I) was serially diluted 5-fold with 100% DMSO starting from 1 mM (7 concentrations in total), and then 2 μL of the compound of formula (I) at each concentration was added to 18 μL of a reaction buffer (20 mM HEPES pH 7.5, 150 mM NaCl, 5 mM DTT, 0.005% Tween 20, and 100 μg/mL BSA) for dilution. After being mixed well, 2 μL of the compound of formula (I) at each concentration was added to 48 μL of the above reaction buffer for dilution, and mixed well (final concentration of the compound of formula (I) in DMSO: 0.1%). […] After being incubated in the incubator for another 1 hour, the fluorescence values (excited at 320 nm, emitted light at 665 nm and 620 nm being detected, and the ratio of the two being the enzyme binding signal) were read on Envision (purchased from PerkinElmer). The binding strength of the compound of formula (I) to BRD4 (BD2) protein was determined respectively at 7 concentrations, and the data were calculated using GraphPad Prism software to obtain the IC50 value of the compound of formula (I).
(In TR-FRET formats the signal depends on donor and acceptor labels being close together.)

The target of a further data set is BRD4 (BD1) (Homo sapiens (Human), UniProt O60885). In words: In vitro enzymatic activity assay on BRD4 (BD1), HTRF. It counts as binding. To be noted: GST-BRD4 (BD1, 44-168 aa). Here is the method: In the present application, the IC50 value of the compound of formula (I) in inhibiting BRD4 (BD1) enzyme binding reaction were determined by homogeneous time resolved fluorescence (HTRF). The compound of formula (I) was serially diluted 5-fold with 100% DMSO starting from 0.2 mM (7 concentrations in total), and then 2 μL of the compound of formula (I) at each concentration was added to 48 μL of a reaction buffer (20 mM HEPES pH 7.5, 150 mM NaCl, 5 mM DTT, 0.005% Tween 20, and 100 μg/mL BSA) for dilution, and mixed well. 2.5 μL of the resulting mixture was added to a 384-well plate (OptiPlate-384, purchased from PerkinElmer), then 5 μL of GST-BRD4 (BD1, 44-168 aa) (final concentration: 1 nM) was added, and the resulting mixture was centrifuged, and fully mixed. […] After being incubated in the incubator for another 1 hour, the fluorescence values (excited at 320 nm, emitted light at 665 nm and 620 nm being detected, and the ratio of the two being the enzyme binding signal) were read on Envision (purchased from PerkinElmer). The binding strength of the compound of formula (I) to BRD4 (BD1) protein was determined respectively at 7 concentrations, and the data were calculated using GraphPad Prism software to obtain the ICso value of the compound of formula (I).

Data set [1] in a line: Animal pharmacokinetic study. Format: in vivo, rats. Here is the method: Three healthy adult male rats that obtained from Beijing Vital River Laboratory Animal Technology Co., Ltd were used for the animal pharmacokinetic experiment. The compound of formula (I) was suspended in 2% absolute ethanol, 5% tween 80, 20% polyethylene glycol 400, and 73% (5% hydroxypropylmethyl cellulose in water) (V/V/V/V) at a concentration of 1 mg/mL. The administration volume was 5 mL/kg, and animals were treated with a single intragastric administration at a dose of 5 mg/kg Animals were fasted overnight prior to the experiment, and the fasting time was from 10 hours before administration to 4 hours after administration. Blood was sampled at 0.25, 0.5, 1, 2, 4, 6, 8 and 24 hours after administration Animals were lightly anesthetized with isoflurane, and approximately 0.4 mL of whole blood was collected from the orbital venous plexus using a glass blood collection tube, and placed in a heparin anticoagulation tube. The sample was centrifuged at 4200 rpm for 5 minutes at 4° C., and then the plasma was transferred to a centrifuge tube and stored at −80° C. until analyzed. In the plasma sample analysis, test compound and internal standard (warfarin or propranolol) were extracted from rat plasma by acetonitrile protein precipitation, and the extracts were analyzed by LC/MS/MS. The measured plasma concentration-time data of the individual animals were analyzed using a non-compartmental model of WinNonlin (version no. 5.2.1; Pharsight) software to give pharmacokinetic parameters as shown in Table 17 below: the maximum (peak) plasma drug concentration C,max; the time to peak Tmax; the half-life T1/2 and the area under the plasma concentration-time curve extrapolated to infinity AUC0-inf.

Data set [2] can be described thus: Study on stability under influencing factors (high temperature, high humidity, light) of the crystal forms. It counts as physicochemical. Here is the method: In order to evaluate the solid stability of the crystal forms of the present application, the stability of each of the crystal form I, the crystal form A, the crystal form D, the crystal form E and the crystal form F under influencing factors (high temperature, high humidity and light) was investigated. Each of the crystal forms was stored under the high temperature condition (60±2° C., open (weighing bottle)), and the high humidity condition (room temperature, 92.5%±5% RH, open (weighing bottle) and packaged) for 5 days, 10 days and 30 days, and under the ICH light condition (5500 Lux, 0.9 w/m^2, closed (weighing bottle) and packaged) for 5 days and 10 days. The inner packaging material of the packaged sample was a medical low-density polyethylene bag, and the outer packaging material is a medical polyester/aluminum/polyethylene composite bag. The samples after the storage were characterized by properties, purity (HPLC), crystal form (XRD) and water content to detect the changes in the crystal form and purity. The results are shown in Tables 8-12 (“^#” indicates the ICH condition).

The mark [3] stands for this setting: rat, po, male rats, single intragastric administration, 5 mg/kg, plasma.
Where [4] appears, read: Light (ICH, 5500 Lux), closed, 5 days.
Where [5] appears, read: Light (ICH, 5500 Lux), closed, 10 days.
[6] abbreviates: 92.5% RH, room temperature, open, 10 days.
The mark [7] stands for this setting: 92.5% RH, room temperature, open, 30 days.

As usually defined, the IC50 is the concentration at which inhibition is half-maximal. High values mean lower potency, low ones higher potency. What is called AUC(0-inf) is the area under the concentration-time curve extrapolated to infinity. Read a high AUC(0-inf) as high exposure. A word on the Cmax: it is the peak of the concentration-time curve. Usually Tmax stands for the time from dosing to the highest level. One may read the half-life as how long it takes for the measured level to halve. Low readings indicate fast loss, high ones slow loss. As for `Cn1cc(-c2nc(N=S(C)(C)=O)ccc2Oc2ccc(F)cc2F)c2cc[nH]c2c1=O` [Compound of formula (I), 4-{3-(2,4-difluorophenoxy)-6-{[dimethyl(oxo)-λ^6-sulfaneylidene]amino}-pyridin-2-yl}-6-methyl-1,6-dihydro-7H-pyrrolo[2,3-c]pyridin-7-one], the IC50 against BRD4 (BD2) is 0.25 nM. Besides, the IC50 on BRD4 (BD1) was 0.64 nM. For the same compound, in data set [1] (setting [3]), the AUC(0-inf) stood at 3470 ng·h/mL, the Cmax was 372 ng/mL, the Tmax was determined as 2.67 h and the half-life was 5.25 h. Moreover, in data set [1] (rats, 5 mg/kg intragastric), the “Pharmacokinetic properties (conclusion)” value was “good pharmacokinetic properties”.

Turning to `Cn1cc(-c2nc(N=S(C)(C)=O)ccc2Oc2ccc(F)cc2F)c2cc[nH]c2c1=O` [crystal form A], the Crystal form change entry is reported as “Unchanged” in data set [2] (Light (ICH), packaged, 10 days) and “Unchanged” in data set [2] (setting [5]). Further, the Impurity content came out at 1.32% in data set [2] (Light (ICH), packaged, 10 days); 1.32% in data set [2] (setting [4]); 1.35% in data set [2] (setting [5]); 1.30% in data set [2] (starting crystal form). For the same compound, the Water content in data set [2] (Light (ICH), packaged, 10 days) turned out to be 6.6%; in data set [2] (setting [5]), 8.1%; in data set [2] (starting crystal form), 5.8%.

On to `Cn1cc(-c2nc(N=S(C)(C)=O)ccc2Oc2ccc(F)cc2F)c2cc[nH]c2c1=O` [crystal form D], for which the Impurity content in data set [2] (60° C., open, 5 days) came out at 0.19%; in data set [2] (60° C., open, 10 days), 0.27%; in data set [2] (60° C., open, 30 days), 0.44%; in data set [2] (92.5% RH, packaged, 30 days), 0.12%; in data set [2] (92.5% RH, room temperature, open, 5 days), 0.07%; in data set [2] (setting [6]) it was 0.06%. The Impurity content in data set [2] (setting [7]) was determined as 0.07%; in data set [2] (Light (ICH), packaged, 10 days), 0.08%; in data set [2] (setting [4]), 0.11%; in data set [2] (setting [5]), 0.09%; in data set [2] (starting crystal form), 0.05%. Also, the Crystal form change entry in data set [2] (60° C., open, 10 days) is “Unchanged”; in data set [2] (60° C., open, 30 days), “Unchanged”; in data set [2] (92.5% RH, packaged, 30 days), “Unchanged”; in data set [2] (setting [6]), “Unchanged”; in data set [2] (setting [7]), “Unchanged”; in data set [2] (Light (ICH), packaged, 10 days), “Unchanged”. Also, the Crystal form change result in data set [2] (setting [5]) is listed as “Unchanged”. Moreover, the Water content in data set [2] (60° C., open, 10 days) was found to be 1.0%; in data set [2] (60° C., open, 30 days) it was 0.68%; in data set [2] (92.5% RH, packaged, 30 days), 1.0%; in data set [2] (setting [6]), 2.0%; in data set [2] (setting [7]), 1.9%; in data set [2] (Light (ICH), packaged, 10 days), 1.2%. Also, the values for the Water content in data set [2] (setting [5]) and in data set [2] (starting crystal form) were 1.1% and 1.4%, respectively.

As for `Cn1cc(-c2nc(N=S(C)(C)=O)ccc2Oc2ccc(F)cc2F)c2cc[nH]c2c1=O` [crystal form E], the Impurity content in data set [2] (60° C., open, 5 days) came out at 0.20%; in data set [2] (60° C., open, 10 days) it was 0.21%; in data set [2] (60° C., open, 30 days) it was 0.21%; in data set [2] (starting crystal form), 0.18%. For the same compound, the Crystal form change result in data set [2] (60° C., open, 10 days) is recorded as “Unchanged”; in data set [2] (60° C., open, 30 days), “Unchanged”.

Take `Cn1cc(-c2nc(N=S(C)(C)=O)ccc2Oc2ccc(F)cc2F)c2cc[nH]c2c1=O` [crystal form F]: the Impurity content in data set [2] (60° C., open, 5 days) is reported as 0.18%; in data set [2] (60° C., open, 10 days) it was 0.20%; in data set [2] (60° C., open, 30 days), 0.22%; in data set [2] (starting crystal form) it was 0.17%. Besides, the Crystal form change entry is listed as “Unchanged” in data set [2] (60° C., open, 10 days) and “Unchanged” in data set [2] (60° C., open, 30 days).
